Measurements taken from ChEMBL document CHEMBL1135214, “Meiosis activating sterols derived from diosgenin” (2002).
Calls of active or inactive are those of the source. The calls are words filed in the database; no cut-off is given here.

Experiments:
Assay type in all cases: functional
[1] = organism: Mus musculus; assay: Tested for ability to induce meiosis in immature mouse oocytes by measuring the rate of germinal vesicle breakdown (GVB) relative to FF-MAS; parameters: concentration or dose not given beside the values
[2] = organism: Mus musculus; assay: Tested for ability to induce meiosis in immature mouse oocytes by measuring the rate of germinal vesicle breakdown (GVB)
[3] = organism: Mus musculus; assay: Tested for ability to induce meiosis in immature mouse oocytes by measuring the rate of germinal vesicle breakdown (GVB) relative to FF-MAS; na means Not active

CC(C)CCC[C@@H](C)[C@H]1[C@@H](O)CC2C3=CC=C4C(C)(C)[C@@H](O)CC[C@]4(C)C3CC[C@@]21C (stereo partly drawn)
Relative activity [1]: 90%

CC(C)CCC[C@@H](C)[C@H]1[C@@H](O[Si](C)(C)C(C)(C)C)CC2C3CC=C4C[C@@H](O)CC[C@]4(C)C3CC[C@@]21C (stereo partly drawn)
Relative activity [1]: 43%

CC(CO)CCC[C@@H](C)[C@H]1CC[C@H]2[C@@H]3CC=C4C(C)(C)[C@@H](O)CC[C@]4(C)[C@H]3CC[C@]12C (single isomer, unassigned)
Relative activity [1]: 71%

C[C@@H](CI)CCC[C@@H](C)[C@H]1CC=C2C3=C(CC[C@@]21C)[C@@]1(C)CC[C@H](O)C(C)(C)[C@@H]1CC3
Relative activity [1]: 85%

CC(C)=CCC[C@@H](C)[C@H]1CC=C2C3=C(CC[C@@]21C)[C@@]1(C)CC[C@H](O)C(C)(C)[C@@H]1CC3
Activity [2]: 100%

C[C@@H](CO)CCC[C@@H](C)[C@H]1CCC2C3=CC=C4C(C)(C)[C@@H](O)CC[C@]4(C)C3CC[C@@]21C (stereo partly drawn)
Relative activity [1]: 89%

C[C@H](CCCC(C)(C)Cl)[C@H]1CC=C2C3=C(CC[C@@]21C)[C@@]1(C)CC[C@H](O)C(C)(C)[C@@H]1CC3
Relative activity [1]: 62%

CC(C)CCC[C@@H](C)[C@H]1[C@@H](O)CC2C3CC=C4C(C)(C)[C@@H](O)CC[C@]4(C)C3CC[C@@]21C (stereo partly drawn)
Relative activity [1]: 113%

C[C@@H](CO)CCC[C@@H](C)[C@H]1CC=C2C3=C(CC[C@@]21C)[C@@]1(C)CC[C@H](O)C(C)(C)[C@@H]1CC3
Relative activity [3]: inactive

C=C(C)CCC[C@@H](C)[C@H]1CC=C2C3=C(CC[C@@]21C)[C@@]1(C)CC[C@H](O)C(C)(C)[C@@H]1CC3
Relative activity [1]: 106%

C[C@@H](CCl)CCC[C@@H](C)[C@H]1CC=C2C3=C(CC[C@@]21C)[C@@]1(C)CC[C@H](O)C(C)(C)[C@@H]1CC3
Relative activity [1]: 87%

CC(C)CCC[C@@H](C)[C@H]1[C@@H](O)CC2C3CC=C4CCCC[C@]4(C)C3CC[C@@]21C (stereo partly drawn)
Relative activity [1]: 87%

C[C@@H](CO)CCC[C@@H](C)[C@H]1CCC2C3CC=C4C[C@@H](O)CC[C@]4(C)C3CC[C@@]21C (stereo partly drawn)
Relative activity [3]: inactive
